This is an account of results in patent US20090137538A1, “METHOD OF TREATING ATROPHIC VAGINITIS” (priority 2006, published 2009).

For data set [1] the following is noted: cited from earlier work.
The conditions of data set [2]: relative risk ratio vs placebo, cited from earlier work.
The conditions of data set [3]: vaginal ring, after vaginal administration; cited from earlier work.
In data set [4] the test system is women with recurrent urinary tract infections. The note with it: cited from earlier work.
Data set [5] relates to endometrium. The conditions noted are these: oral 2 mg per day, average three weeks prior to hysterectomy; cited from earlier work.
For data set [6], the system named is SIV. The conditions noted are these: vaginal transmission; base cream alone 75%; cited from earlier work.
The target in data set [7] is T1, sex hormone-binding globulin (SHBG) (Homo sapiens, UniProt P04278).
T1 sequence (P04278 30-402): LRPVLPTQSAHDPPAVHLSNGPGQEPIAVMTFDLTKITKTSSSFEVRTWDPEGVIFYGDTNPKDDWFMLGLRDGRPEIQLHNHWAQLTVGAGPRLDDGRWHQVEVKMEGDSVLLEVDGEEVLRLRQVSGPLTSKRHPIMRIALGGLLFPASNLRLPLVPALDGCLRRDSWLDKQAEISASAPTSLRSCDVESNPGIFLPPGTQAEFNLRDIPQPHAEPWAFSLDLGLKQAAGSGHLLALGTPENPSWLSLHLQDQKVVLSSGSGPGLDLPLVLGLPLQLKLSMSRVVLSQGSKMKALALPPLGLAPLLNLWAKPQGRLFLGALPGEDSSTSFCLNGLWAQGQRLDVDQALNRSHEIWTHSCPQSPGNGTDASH
The conditions noted are these: unlike estradiol and estrone; cited from earlier work.

The test system of data set [8] is menopausal women. The note with it: cited from earlier work.
For data set [9], the system named is lactobacilli. The note with it: cited from earlier work.
Data set [10] has as its system urinary urgency, urge incontinence, nocturia. The conditions noted are these: vaginal therapy; cited from earlier work.
The conditions of data set [11]: cited from earlier work. This is another data set of the same source.
Data set [12] relates to endometrium. In words: Example 6: endometrial biopsy at 6 months. The format is in vivo, human. The note with it: vaginal dose of 30 mg in the combination suppository, biopsy after 6 months.
Text: Five patients underwent an endometrial biopsy (EMB) after 6 months of treatment.
For data set [13] the following is noted: cited from earlier work. The source holds these as a separate data set.
[14] abbreviates: dose of 0.5 mg, menopausal patients.

Structures are written as SMILES. Where two headings read alike, the source gives them in different places.

Take `CC(=O)O[C@]1(C(C)=O)CC[C@H]2[C@@H]3C[C@H](C)C4=CC(=O)CC[C@]4(C)[C@H]3CC[C@@]21C` [MPA, Medroxyprogesterone Acetate]: in [1] (in vivo), the “Lipid Profile” value is “MPA: adversely effects lipid profile and negates the beneficial”; the Liver function entry is “MPA: contraindicated in patients with liver dysfunction”; the “Sleep and Mood” value was “MPA: can cause insomnia, mental depression, and anxiety”.

For `NC(=O)C(c1ccccc1)(c1ccccc1)[C@@H]1CCN(CCc2ccc3c(c2)CCO3)C1` [Darifenacin], in data set [2] (dose 7.5 mg), the “Any AE*” value is given as 1.2, the Constipation is 2.2 and the “Dry Mouth” value is recorded as 2.2. In addition, in data set [2] (dose 15 mg), the “Any AE*” value is listed as 1.4, the Constipation is on record as 2.4 and the “Dry Mouth” value is reported as 2.9.

Take `CCN(CC)CC#CCOC(=O)C(O)(c1ccccc1)C1CCCCC1` (stereo not drawn) [Oxybutynin IR, Oxybutynin]: in [2] (dose 8.8-15 mg), the “Any AE*” value is reported as 1.4, the “Blurred Vision” value is recorded as 1.7, the “Dry Mouth” value is reported as 3.3 and the Dyspepsia is given as 3.3. The “Urinary Retention*” value in data set [2] (dose 8.8-15 mg) is reported as 5.6.

Consider `C#C[C@]1(O)CC[C@H]2[C@@H]3CCc4cc(O)ccc4[C@H]3CC[C@@]21C` [ethinylestradiol], for which the bioavailability entry in data set [3] is given as “approximately 55.6%”.

For `C[C@]12CC[C@@H]3c4ccc(O)cc4CC[C@H]3[C@@H]1C[C@@H](O)[C@@H]2O` [Estriol, 16-alpha, 17-beta, estra 1,3,5 (10) triene 3, 16, 17-triol], in data set [4], the “reduction of the requirement for antibiotics compared to those unsupplemented” value is “up to 16 times”. For the same compound, the “women with hyperplastic changes on histological exam of the uteri” value in data set [5] is listed as 70.8%. Moreover, the SIV infection rate in [6] was 8.3%. For the same compound, the “binding to sex hormone-binding globulin” value in [7] is “does not bind”. In addition, the “reduction of the vaginal pH” value in data set [8] (setting [14]) is recorded as “failed to reduce”. Further, in data set [8] (menopausal women, ovules 1 mg, 24 weeks), the “vaginal pH after therapy” value is 4.12. Moreover, the “patients in whom lactobacilli reappeared” value in data set [9] (after one month, no patients receiving placebo) was 61%. The “restoration of the population of lactobacilli” value in [9] (setting [14]) is listed as “failed to restore”. For the same compound, in [10], the alleviating nocturia is reported as 54%, the alleviating urge incontinence was 58% and the alleviating urinary urgency is reported as 56%.

Take `C[C@]12CC[C@@H]3c4ccc(O)cc4CC[C@H]3[C@@H]1CC[C@@H]2O` [estradiol]: the “serum estradiol levels after vaginal versus oral administration” value in data set [11] (same dose) was “ten-fold higher”. Also, in [11] (same exact dose), the “endometrial concentrations after vaginal versus oral administration” value is given as “seventy-fold higher”.

On to `O=C(O[C@H]1C[C@H]2CC[C@@H](C1)[N+]21CCCC1)C(O)(c1ccccc1)c1ccccc1` [Trospium], for which, in data set [2] (dose 40 mg), the “Any AE*” value is on record as 1.5, the Constipation is on record as 2.1 and the “Dry Mouth” value is 3.2.

For `CC(=O)[C@H]1CC[C@H]2[C@@H]3CCC4=CC(=O)CC[C@]4(C)[C@H]3CC[C@]12C` [Progesterone, pregn-4-ene-3, 20-dione], in data set [12], the “effect on estrogen stimulated postmenopausal endometrium” value was “anti-proliferative effect”. The serum concentration in data set [13] (25 mg vaginal suppository) is 7.27 ng/mL. The serum concentration in data set [13] (50 mg vaginal suppository) was 8.84 ng/mL. Also, the “Quality of life/menopausal symptoms” value in data set [1] (MP-containing HRT compared with MPA-containing regimen) was “containing HRT experienced significant improvement in symptoms”. Further, in data set [1] (in vivo), the “Cardiovascular Events” value is “MP: has antihypertensive action and can be safely used to treat”; the “Lipid Profile” value is “MP: does not negate the beneficial effects of estrogen and modestly”; the Liver function result is on record as “MP: does not effect liver enzymes or cause liver related side”; the “Sleep and Mood” value was “MP: improves the quality of sleep and has sedative properties”.
